Results from patent US8148328B2, “Salicylanilides enhance oral delivery of therapeutic peptides” (The Regents of the University of California, priority 2006, dated 2012).
Counter-ions that a name gives are not always drawn. Like-named read-outs stand apart in the source and are kept apart here. Residues, ends and D or L forms follow the SMILES beside them. No end group written: not given here.

What was measured:
[1] = tested on: monocyte chemotactic activity in cultures of human aortic endothelial cells; experiment: LDL-inflammatory index of LDL from treated apoE null mice; format: in vivo; details: FIG. 25: co-administered with D-4F or L-4F, mice of FIG. 24
[2] = tested on: LDL-induced monocyte chemotactic activity in cultures of human aortic endothelial cells; experiment: HDL-inflammatory index of HDL from treated apoE null mice; format: in vivo; details: for HDL-inflammatory index, potency relative to niclosamide: FIG. 24: salicylanilide 10:1 with 5 μg D-4F or L-4F by stomach tube, 6 hours
Excerpt: 11-month-old female apoE null mice were fasted during the day. At night the mice were provided chow containing or not containing additions. In the first experiment the mice were given chow alone (C) or chow supplemented with 8.0 micrograms of Niclosamide (2′,5-Dichloro-4′-nitrosalicylanilide; Niclosamide, Sigma catalog number N-3510 Page 1711 2006-2007 catalog Empirical Formula (Hill Notation): C13H8C12N2O4 Formula Weight: 327.12, CAS Number: 50-65-7 Batch 105K0666 EC 200-056-8) per gram of chow (D) or chow supplemented with 2.0 micrograms of L-4F (free base) per gram of chow (E), or chow supplemented with 8.0 micrograms of Niclosamide together with 2.0 micrograms of L-4F (free base) per gram of chow (F). The mice were only given one gram of chow per mouse (n=8 mice per group) so that they would consume all of the chow. In the morning after the chow was consumed the mice were bled and their plasma was sucrose cryopreserved and fractionated by FPLC and the HDL-containing fractions were tested for their ability to inhibit monocyte chemotactic activity induced by a standard control human LDL (A) in cultures of human aortic endothelial cells. The mouse HDL (C-J) was also compared to a standard human HDL (B) that was added at the same concentrations as the mouse HDL. The resulting monocyte chemotactic activity was normalized to the standard control LDL added alone (A). The results are plotted as the HDL-inflammatory index, which is the result of dividing the monocyte chemotactic activity measured for each condition by the monocyte chemotactic activity obtained by the standard control LDL added alone, which was normalized to 1.0 as described previously (Navab et al. (2004) J Lipid Res, 45: 993-1007).
A second experiment was performed as described for the first experiment with 8 mice in each group except that the additions to the chow were different. Chow alone in the second experiment (G) was compared to chow supplemented with 100 micrograms of Niclosamide per gram of chow (H), or supplemented with 10 micrograms of L-4F (free base) per gram of mouse chow (I), or supplemented with 10 micrograms of L-4F (free base) together with 100 micrograms of Niclosamide per gram of chow (J). As in the first experiment the mice were only given one gram of chow per mouse so that they would consume all of the chow. In the morning this second group of mice were bled and their HDL tested in the human artery wall cell culture together with the HDL from the first experiment.
Ten mg of Niclosamide was placed in a glass-glass homogenizer with mortar and round bottom pestle (Kontes Dounce Tissue grinder, K885300-0015 available from Fisher, VWR) and 200 μL of ethanol was added. The Niclosamide ethanol mixture was homogenized using 2-3 strokes and distilled water was added and the mixture further homogenized using 5-10 strokes and the volume was adjusted to 10 mL with distilled water. Serial dilutions of this mixture were made using distilled water to give the micrograms of Niclosamide shown on the x-axis, which were contained in 100 μL. L-4F (free base) was diluted with water to give 10 μg per 100 μL of water. One hundred microliters of the Niclosamide solution was given by stomach tube to each mouse in each group of twelve-month-old non-fasting female apoE null mice (n=4 per group) and immediately followed by 100 μL containing 10 μg of L-4F (free base) in water. The mice were fasted and after 7 hours they were bled and their plasma was sucrose cryopreserved. The plasma was fractionated by FPLC and the HDL-containing fractions were tested for their ability to inhibit the induction of monocyte chemotactic activity by a standard control human LDL, which was added to cultures of human aortic endothelial cells. The standard control human LDL was also added by itself or with a standard control human HDL. The values obtained by the standard control human LDL alone were normalized to 1.0. […]

[3] = tested on: aortic sinus lesion area; experiment: Lesion regression in old apoE null mice, six months in chow; format: in vivo; details: FIGS. 32-34: niclosamide 2 mg and/or L-4F 200 μg/mouse/day in chow, pravastatin 50 μg/mouse/day, 26 weeks
Excerpt: Ninety-five female apoE null mice age 9.5 months from the UCLA breeding colony were identified. Twenty-three were sacrificed at time Zero (Group I) to establish lesion area at the start of the experiment. The remainder of the mice were divided into three groups of 24 mice each and the following additions were made to the chow for each group: Group II: Niclosamide at 2,000 micrograms/mouse/day; Group III: L-4F at 200 micrograms/mouse/day; Group IV: L-4F at 200 micrograms/mouse/day plus Niclosamide at 2,000 micrograms/mouse/day. All groups received 50 micrograms/mouse/day of pravastatin in their drinking water. At the veterinarian's request because of fighting and/or ulcerative dermatitis mice were euthanized prior to the end of the experiment as follows: 6 mice from Group II; 5 mice from Group III; 4 mice from Group IV. After six months the remaining mice were sacrificed and aortic sinus lesion area was determined as described previously (Id.).
In still another experiments, nine and half months-old female apoE null mice were divided into four groups: Group I was sacrificed to establish base line lesion area (Time Zero). Group II received niclosamide at 2 mg/mouse/day in rodent chow. Group III received L-4F at 200 μg/mouse/day in rodent chow. […] After 26 weeks the mice were sacrificed and aortic sinus lesion area was determined.

[4] = mouse, in vivo; cited from earlier work
[5] = mouse, in vivo
[6] = tested on: LDL-induced monocyte chemotactic activity in cultures of human aortic endothelial cells; details: mice, oral, without niclosamide; human artery wall cells (Navab 2002); cited from earlier work
[7] = Solubilization of niclosamide in water with or without L-4F; format: physicochemical; details: even when added in ethanol and homogenized
Method: Niclosamide at 10 mg per mL was added to water, or to water containing 1.0 mg/mL L-4F (free base) and was homogenized in a glass-glass homogenizer. The solutions were stored at 4° C. for ten days and photographed
Niclosamide at 10 mg per mL was added to water, or to water containing 1.0 mg/mL L-4F (free base) and was homogenized in a glass-glass homogenizer.

[8] = cited from earlier work; for solubility in water: 20° C., ethanolamine salt in distilled water
[9] = mouse, in vivo; remark: listed apart in the source
Method: (§1) Fasted apoE null mice 6-months of age (n=4 per group) were administered by stomach tube ^14C-L-4F (21,000 dpm containing 10 micrograms of L-4F per mouse) with or without 100 micrograms of niclosamide in 200 microliters. Fasting was continued and the mice were bled at the time points shown on the X-axis and the dpm per mL plasma determined.
(§2) Fasted female apoE null mice 6-months of age (n=4 per group) were administered by stomach tube L-4F (21,000 dpm containing 10 micrograms of L-4F per mouse) with or without 100 micrograms of niclosamide in 200 μL 0.1% Tween20 in ammonium bicarbonate at pH 7.0. Fasting was continued and the mice were bled at the time points shown on the X-axis in FIG. 27 and the dpm per mL plasma determined.

[10] = mouse, in vivo, 100 ug
Method: as §1, §2

[11] = tested on: inflammatory response induced by the action of HPODE oxidizing PAPC in cocultures of human artery wall cells; details: apoE null mice, drinking water 24 hours; D-4F 1 μg/ml, atorvastatin or pravastatin 0.05 mg/ml; cited from earlier work
[12] = Fate of peptides after an oral dose (degradation, association with HDL, clearance from the circulation)
[13] = FIG. 8: female apoE null mice, overnight in chow, niclosamide 8 or 100 μg and/or L-4F 2 or 10 μg per gram of chow
[14] = FIG. 22: 10 μg peptide with or without niclosamide 10:1, pH 8.0, stomach tube, 7 hours

With O=C(Nc1ccc([N+](=O)[O-])cc1Cl)c1ccc(Cl)cc1O [BP-1001] the “LDL-inflammatory index, potency relative to niclosamide” value [1] was “more potent” and the “HDL-inflammatory index, potency relative to niclosamide” value [2] was “more potent than niclosamide”.
With O=C(Nc1ccc([N+](=O)[O-])cc1Cl)c1ccc(O)c(Cl)c1 [BP-1012] the “LDL-inflammatory index, potency relative to niclosamide” value [1] was “more potent” and the “HDL-inflammatory index, potency relative to niclosamide” value [2] was “more potent than niclosamide”.
For CC(=O)N[C@@H](CC(=O)O)C(=O)N[C@@H](Cc1c[nH]c2ccccc12)C(=O)N[C@@H](Cc1ccccc1)C(=O)N[C@@H](CCCCN)C(=O)N[C@@H](C)C(=O)N[C@@H](Cc1ccccc1)C(=O)N[C@@H](Cc1ccc(O)cc1)C(=O)N[C@@H](CC(=O)O)C(=O)N[C@@H](CCCCN)C(=O)N[C@H](C(=O)N[C@@H](C)C(=O)N[C@@H](CCC(=O)O)C(=O)N[C@@H](CCCCN)C(=O)N[C@@H](Cc1ccccc1)C(=O)N[C@@H](CCCCN)C(=O)N[C@@H](CCC(=O)O)C(=O)N[C@@H](C)C(=O)N[C@@H](Cc1ccccc1)C(N)=O)C(C)C [L-4F, Ac-D-W-F-K-A-F-Y-D-K-V-A-E-K-F-K-E-A-F-NH2] (Ac-DWFKAFYDKVAEKFKEAF-NH2), the “lesions in old apoE null mice versus time zero” value [3] is given as “neither niclosamide nor L-4F without niclosamide significantly reduced lesions”, the “degradation after oral administration” value [4] is given as “rapidly degraded” and the “time after an oral dose at which essentially non-detectable in the circulation” value [5] is given as 6 h. The “association with pre-beta HDL and HDL” value ([5]; po) was “rapidly associates with pre-beta HDL and HDL”, the “protective capacity of HDL to inhibit LDL-induced monocyte chemotactic activity” value [6] was “did not significantly alter” and the HDL-inflammatory index [2, 13] was “slightly but significantly improved”. For the same molecule, the HDL-inflammatory index [2, 14] was “only able to achieve this degree of efficacy when co-administered with niclosamide”.
For O=C(Nc1ccc([N+](=O)[O-])cc1Cl)c1cc(Cl)ccc1O [Niclosamide, 2′5-dichloro-4′-nitrosalicylanilide], the “lesions in old apoE null mice versus time zero” value [3] was “neither niclosamide nor L-4F without niclosamide significantly reduced lesions”, the “solubility in aqueous solutions” value [7] was “relatively insoluble” and the HDL-inflammatory index [2, 13] was “ineffective”. For the same molecule, the HDL-inflammatory index ([2]; FIG. 24: salicylanilide administered without the peptides) was “neither niclosamide nor the new salicylanilides were anti-inflammatory”, the solubility in water [8] was 5 to 8 µg/mL and the solubility in acetone [8] was “soluble in acetone”. For the same molecule, the “solubility in ether, ethanol and chloroform” value [8] was “sparingly soluble” and the stability in tablets ([8]; moist environments) was “undergoes a biodegradation”.
With CC(=O)N[C@@H](CC(=O)O)C(=O)N[C@@H](Cc1c[nH]c2ccccc12)C(=O)N[C@@H](Cc1ccccc1)C(=O)N[C@@H](CCCCN)C(=O)N[C@@H](C)C(=O)N[C@@H](Cc1ccccc1)C(=O)N[C@@H](Cc1ccc(O)cc1)C(=O)N[C@@H](CC(=O)O)C(=O)N[C@@H](CCCCN)C(=O)N[C@H](C(=O)N[C@@H](C)C(=O)N[C@@H](CCC(=O)O)C(=O)N[C@@H](CCCCN)C(=O)N[C@@H](Cc1ccccc1)C(=O)N[C@@H](CCCCN)C(=O)N[C@@H](CCC(=O)O)C(=O)N[C@@H](C)C(=O)N[C@@H](Cc1ccccc1)C(N)=O)C(C)C [^14C-L-4F] (Ac-DWFKAFYDKVAEKFKEAF-NH2; N-terminus and C-terminus assumed) the “duration of (low) plasma levels” value [9] was “no more than 5 minutes”, the “persistence of plasma level at a lower level” value [9] was “up to four hours” and the “persistence of the Cmax plasma level” value [9] was “persisted for more than an hour”. The Cmax [10] was about 150 ng/mL and the HDL inflammatory index ([2]; FIG. 28: 10 μg 14C-L-4F with 100 μg niclosamide, 5 hours) was “biologically active when given with niclosamide”.
For CC(C)c1c(C(=O)Nc2ccccc2)c(-c2ccccc2)c(-c2ccc(F)cc2)n1CC[C@@H](O)C[C@@H](O)CC(=O)O [atorvastatin, reference compound], the HDL function [11] is listed as “did not improve HDL function”.
In the case of O=C(Nc1ccc([N+](=O)[O-])cc1Cl)c1cc(Cl)ccc1O [ethanolamine salt, 5-chloro-salicyl-(2-chloro-4-nitro) anilide 2-aminoethanol salt], the solubility in water [8] is listed as 180 to 280 µg/mL.
For “D-4F: 4F (SEQ ID NO:5) where one or more residues are D form amino acids (DWFKAFYDKVAEKFKEAF; also: one or more residues D-form, places not given here)”, the HDL function [11] is given as “did not significantly improve HDL function”, the “association with pre-beta HDL and HDL” value ([12]; after an oral dose) is given as “rapidly associates with pre-beta HDL and HDL” and the “time after an oral dose at which essentially non-detectable in the circulation” value ([12]; oral dose) is given as 6 h. For the same molecule, the HDL-inflammatory index [2, 14] was “able to render apoE null mouse HDL anti-inflammatory to a degree comparable to normal human HDL”.
